BindingDB's records for doi:10.1124/mol.51.2.350 (Schering-Plough Research Institute, 1997)
Square brackets hold non-standard residues; d marks the D form. Peptide text beside a SMILES is read from it. * marks the point of attachment. Phe(4-F) = N[C@@H](Cc1ccc(F)cc1)C(=O)O; hArg = N=C(N)NCCCC[C@H](N)C(=O)O; Cha = N[C@@H](CC1CCCCC1)C(=O)O; X1 = CC(=O)C(Cc1ccccc1)N*

Biological target: Prothrombin (Homo sapiens, UniProt P00734)

Ki [µM] | Compound
> 10 | CCC(C)C(NC(=O)C(Cc1ccc(O)cc1)NC(=O)C(NC(=O)C(CCCN=C(N)N)NC(=O)C(N)CC(=O)O)C(C)C)C(=O)NC(Cc1cnc[nH]1)C(=O)NC(Cc1cnc[nH]1)C(=O)N1CCCC1C(=O)NC(Cc1ccccc1)C(C)=O (centres undefined) [NSC_439662] (H-DRVYIHHP-X1; configuration not given here)
0.54 | CC(C)C[C@H](NC(=O)[C@H](CC(C)C)NC(=O)[C@H](Cc1ccccc1)NC(=O)[C@@H](N)CO)C(=O)N[C@@H](CCCN=C(N)N)C(=O)N[C@@H](CC(N)=O)C(=O)O [SFLLRN-OH]
> 10 | CC(C)C[C@H](NC(=O)[C@H](CC(C)C)NC(=O)[C@H](Cc1ccccc1)NC(=O)[C@@H](N)CO)C(=O)N[C@@H](CCCN=C(N)N)C(=O)O [SFLLR-OH]
0.024 | C[C@H](N)C(=O)N[C@@H](Cc1ccc(F)cc1)C(=O)N[C@@H](CCCN=C(N)N)C(=O)N[C@@H](CC1CCCCC1)C(=O)N[C@@H](CCCCN=C(N)N)C(=O)N[C@@H](Cc1ccccc1)C(N)=O [L-Ala-4-Fluoro-L-Phe-L-Arg-3-cyclohexyl-L-Ala-N-amidino-L-Lys-L-Phe-NH2] (H-A[Phe(4-F)]R[Cha][hArg]F-NH2)
1.1 | CC(C)CC(NC(=O)C(Cc1ccccc1)NC(=O)C(N)CO)C(=O)NC(CC(C)C)C(=O)NC(CCCN=C(N)N)C(=O)NC(CC(N)=O)C(=O)N1CCCC1C(=O)NC(CC(N)=O)C(=O)NC(CC(=O)O)C(=O)NC(CCCCN)C(=O)NC(Cc1ccc(O)cc1)C(=O)NC(CCC(=O)O)C(=O)N1CCCC1C(=O)NC(Cc1ccccc1)C(=O)O (centres undefined) [SFLLRNPNDKYEPF-OH] (H-SFLLRNPNDKYEPF-OH; configuration not given here)
> 10 | CSCCC(NC(=O)C(CC(C)C)NC(=O)CNC(=O)C(NC(=O)C(Cc1ccccc1)NC(=O)C(CO)NC(=O)C(CC(=O)O)NC(=O)C(NC(=O)C(CCCCN)NC(=O)C(N)Cc1cnc[nH]1)C(C)O)C(C)C)C(N)=O (stereo not drawn) [Neurokinin alpha]

Further lines, the compound ahead of its results:

Compound | Ki [µM]
CC(C)C[C@H](NC(=O)[C@H](CC(C)C)NC(=O)[C@H](Cc1ccccc1)NC(=O)[C@@H](N)CO)C(=O)N[C@@H](CCCN=C(N)N)C(=O)N[C@@H](CC(N)=O)C(N)=O [CAS_141923-40-2] | 0.168
CSCC[C@H](NC(=O)[C@H](CC(C)C)NC(=O)CNC(=O)[C@H](Cc1ccccc1)NC(=O)[C@H](Cc1ccccc1)NC(=O)[C@H](CCC(N)=O)NC(=O)[C@H](CCC(N)=O)NC(=O)[C@@H]1CCCN1C(=O)[C@H](CCCCN)NC(=O)[C@@H]1CCCN1C(=O)[C@@H](N)CCCN=C(N)N)C(N)=O [Arg-Pro-Lys-Pro-Gln-Gln-Phe-Phe-Gly-Leu-Met NH2] | > 10
H-SLIGKV-NH2 [CAS_190383-13-2] | > 10
CC(=O)O[C@]1(C(C)=O)CC[C@H]2[C@@H]3C[C@H](C)C4=CC(=O)CC[C@]4(C)C3CC[C@@]21C (some centres undefined) | > 10
NC(N)=NCCCC(N)C(=O)N1CCCC1C(=O)N1CCCC1C(=O)NCC(=O)NC(Cc1ccccc1)C(=O)NC(CO)C(=O)N1CCCC1C(=O)NC(Cc1ccccc1)C(=O)O (centres undefined) [CAS_58-82-2] | > 10
CCC(C)C(NC(=O)C(CO)NC(=O)C(CC(N)=O)NC(=O)C(CC(C)C)NC(=O)C(Cc1ccc(O)cc1)NC(=O)C(CCCCN)NC(=O)C(CCCCN)NC(=O)C(NC(=O)C(C)NC(=O)C(CCSC)NC(=O)C(CCC(N)=O)NC(=O)C(CCCCN)NC(=O)C(CCCN=C(N)N)NC(=O)C(CC(C)C)NC(=O)C(CCCN=C(N)N)NC(=O)C(NC(=O)C(Cc1ccc(O)cc1)NC(=O)C(CC(N)=O)NC(=O)C(CC(=O)O)NC(=O)C(NC(=O)C(Cc1ccccc1)NC(=O)C(NC(=O)C(C)NC(=O)C(CC(=O)O)NC(=O)C(CO)NC(=O)C(N)Cc1cnc[nH]1)C(C)C)C(C)O)C(C)O)C(C)C)C(=O)NC(CC(C)C)C(=O)NC(CC(N)=O)C(=O)O (centres undefined) [CAS_37221-79-7] | > 10
H-FSLLRN-NH2 [FSLLRN-NH2] | > 10
CC(C)C[C@H](NC(=O)CNC(=O)[C@H](CC(N)=O)NC(=O)[C@H](CCCCN)NC(=O)[C@H](CC(=O)O)NC(=O)[C@H](CO)NC(=O)[C@H](Cc1ccccc1)NC(=O)[C@H](CO)NC(=O)[C@H](CCCNC(=N)N)NC(=O)[C@H](Cc1cnc[nH]1)NC(=O)[C@H](CC(N)=O)NC(=O)CNC(=O)[C@@H](NC(=O)[C@H](C)NC(=O)[C@H](Cc1cnc[nH]1)NC(=O)[C@@H]1CCCN1C(=O)CNC(=O)[C@H](CC(C)C)NC(=O)[C@H](CC(C)C)NC(=O)[C@H](Cc1ccc(O)cc1)NC(=O)CNC(=O)[C@H](C)NC(=O)[C@H](CO)NC(=O)[C@H](CC(N)=O)NC(=O)[C@H](CC(C)C)NC(=O)[C@@H](NC(=O)[C@H](Cc1c[nH]c2ccccc12)NC(=O)CN)[C@@H](C)O)C(C)C)C(=O)N[C@H](C(=O)N[C@@H](CO)C(=O)O)[C@@H](C)O [Galanin, Human] | > 10
